15 compounds from patent US20210284621A1 (priority 2018, published 2021) can be followed below.

One may read the inhibition as the relative decrease from the control value, in per cent. A word on the Ki: it is the equilibrium dissociation constant of an inhibitor or competing ligand from its target. Low readings indicate higher affinity, high ones lower affinity.

The target in assay [1] is CB1 receptor (Homo sapiens, UniProt P21554). Kind of assay: CB1 competitive radioligand binding assay ([3H] SR141716A). The note with it: for inhibition at 0.5 µM: 0.5 μM compound, 2.0 nM [3H] SR141716A, 90 min 37° C. On the set-up: expressed in transfected cells; host or cells: Chem-1 cells. How it is done: (§1) J Med Chem. 41(26): 5177-5187 (1998); and Munro S., et al. Molecular characterization of a peripheral receptor for cannabinoids. Nature 365:61-65 (1993).
CB1 receptor, sequence (P21554 whole entry): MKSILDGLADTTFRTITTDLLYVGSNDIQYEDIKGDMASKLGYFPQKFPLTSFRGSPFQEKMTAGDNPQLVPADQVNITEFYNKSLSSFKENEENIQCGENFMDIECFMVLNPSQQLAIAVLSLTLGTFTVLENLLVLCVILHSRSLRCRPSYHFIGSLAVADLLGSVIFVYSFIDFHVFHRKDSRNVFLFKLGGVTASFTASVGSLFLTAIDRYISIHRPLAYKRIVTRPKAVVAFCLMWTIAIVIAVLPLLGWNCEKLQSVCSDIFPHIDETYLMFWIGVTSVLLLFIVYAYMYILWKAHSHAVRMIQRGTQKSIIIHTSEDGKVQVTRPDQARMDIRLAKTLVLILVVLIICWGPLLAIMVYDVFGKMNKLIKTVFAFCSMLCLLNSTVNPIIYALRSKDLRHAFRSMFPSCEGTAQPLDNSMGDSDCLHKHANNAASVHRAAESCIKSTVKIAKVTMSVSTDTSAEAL
CB1 Radioligand Binding Assay: A compound of the invention (0.5 μM in 1% DMSO) was incubated with Chem-1 cells expressing human recombinant CB1 receptor in buffer (50 mM HEPES, pH 7.4, 5 mM MgCl2, 1 mM CaCl2, 0.2% BSA) for 90 minutes at 37° C. in the presence of 2.0 nM [H^3] SR141716A (CB1 radioligand). % Inhibition was determined as a function of radioligand binding to the CB1 receptor.

Assay [2] has as its target CB2 receptor (Homo sapiens, UniProt P34972). Kind of assay: CB2 competitive radioligand binding assay ([3H] WIN-55,212-2). On the set-up: expressed in transfected cells; host or cells: CHO-K1 cells. The settings on record: for inhibition at 0.05 µM: 0.05 μM compound, 2.4 nM [3H] WIN-55,212-2, 90 min 37° C. How it is done: as §1
CB2 Radioligand Binding Assay: A compound of the invention (0.05 μM in 1% DMSO) was incubated with CHO-K1 cells expressing human recombinant CB2 receptor in buffer (20 mM HEPES, pH 7.0, 0.5% BSA) for 90 minutes at 37° C. in the presence of 2.4 nM [H^3] WIN-55,212-2 (CB2 radioligand). % Inhibition was determined as a function of radioligand binding to the […].

Assay [3] deals with LPS-induced PBMCs. Briefly: Inflammatory cytokine release from LPS-induced PBMCs (Luminex). The format is cell-based, human. The settings on record: fold change from LPS-treated PBMCs, compounds 10 μM (DEX 1 μg/ml) 2 h, then LPS 0.1 μg/ml 24 h, negative = reduced. How it is done:
Compounds of the invention were assayed for their effect on inflammatory cytokine release from lipopolysaccharides (LPS)-induced PBMCs, isolated from a human blood sample, the results of which are provided in Table 7 as fold change. Exemplary methods for quantifying secretion of inflammatory cytokines in PBMCs are known in the art, for example, as described in Hailer et al., Infection and Immunity. 68(2):752-759 (2000); and Merlini et al., Frontiers in Immunology. 7:614 (2016); each of which is incorporated herein by reference with respect to methods for evaluating cytokine release in PBMCs.
In brief, human blood samples from healthy volunteers were collected and PBMCs were isolated. PBMCs were cultured and each compound was assayed in triplicate at a final concentration of 10 μM for 2 hours. 1 μg/ml dexamethasone (DEX) served as a positive control. LPS was added at a final concentration of 0.1 μg/ml and further incubated for 24 hours. At the end of the incubation, the supernatants were collected and the levels of a panel of secreted cytokines were measured by a Human Magnetic Luminex® assay (R&D). The results in Table 7 are presented as a fold change from LPS-treated PBMCs. Reduced levels are expressed by negative values. OOR denotes values that are out of the standard curve range for the specific cytokine and thus, could not be accurately measured. Cytotoxicity was also determined. Compounds with cytotoxicity ≥50% was considered cytotoxic. Baseline cytotoxicity of untreated PBMCs was 17% and all compounds presented in Table 7 induced cytotoxicity below 25%.

Where [4] appears, read: OOR = out of standard curve range.

Structures are written as SMILES.

CB2 receptor, sequence (P34972 whole entry): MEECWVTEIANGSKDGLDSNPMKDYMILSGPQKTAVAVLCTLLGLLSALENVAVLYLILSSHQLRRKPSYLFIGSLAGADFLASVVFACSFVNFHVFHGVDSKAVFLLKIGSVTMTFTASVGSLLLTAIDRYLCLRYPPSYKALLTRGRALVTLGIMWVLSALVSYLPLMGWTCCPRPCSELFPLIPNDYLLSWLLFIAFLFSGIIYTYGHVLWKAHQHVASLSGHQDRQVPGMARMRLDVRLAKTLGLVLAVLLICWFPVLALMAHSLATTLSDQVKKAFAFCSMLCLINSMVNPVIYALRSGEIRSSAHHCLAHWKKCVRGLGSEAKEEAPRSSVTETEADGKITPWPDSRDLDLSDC

In the case of `CCCCCCC(C)(C)c1cc(O)c2c(c1)OC(C)(C)[C@@H]1CC=C(C(=O)Oc3ccc(C(N)=S)cc3)C[C@@H]21` [Compound 10, 4-Carbamothioylphenyl (6aR,10aR)-1-hydroxy-6,6-dimethyl-3-(2-methyloctan-2-yl)-6a,7,10,10a-tetrahydro-6H-benzo[c]chromene-9-carboxylate], in assay [1], the inhibition at 0.5 µM amounted to 7%. In addition, the inhibition at 0.05 µM in assay [2] came out at 11%.
In the same order, the values of `CCCCCCC(C)(C)c1cc(O)c2c(c1)OC(C)(C)[C@@H]1CC=C(C(=O)N[C@H]3CC[C@@H](O)CC3)C[C@@H]21` [Compound 18, (6aR,10aR)-1-Hydroxy-N-(cis-4-hydroxycyclohexyl)-6,6-dimethyl-3-(2-methyloctan-2-yl)-6a,7,10,10a-tetrahydro-6H-benzo[c]chromene-9-carboxamide] are 5% and 26%.
On to `CCCCCCC(C)(C)c1cc(O)c2c(c1)OC(C)(C)[C@@H]1CC=C(C(=O)N[C@@H](C)CCO)C[C@@H]21` [Compound 98, (6aR,10aR)-1-hydroxy-N—((S)-4-hydroxybutan-2-yl)-6,6-dimethyl-3-(2-methyloctan-2-yl)-6a,7,10,10a-tetrahydro-6H-benzo[c]chromene-9-carboxamide], for which the values for the Ki in assay [1] and in assay [2] were 0.32 µM and 0.01 µM, respectively. The “Fold Selectivity (CB1/CB2)” value in assay [2] (Table 3, ratio of Ki CB1/CB2) is 32.0.
As for `CCCCCCC(C)(C)c1cc(OC)c2c(c1)OC(C)(C)[C@@H]1CC=C(C(=O)NCCO)C[C@@H]21` [Compound 7, (6aR,10aR)-N-(2-Hydroxyethyl)-1-methoxy-6,6-dimethyl-3-(2-methyloctan-2-yl)-6a,7,10,10a-tetrahydro-6H-benzo[c]chromene-9-carboxamide], in assay [1], the inhibition at 0.5 µM amounted to 21%. For the same compound, in assay [2], the inhibition at 0.05 µM is 11%.
As to `CCCCCCC(C)(C)c1cc(O)c2c(c1)OC(C)(C)[C@@H]1CC=C(C(=O)NC34CC5CC(CC(O)(C5)C3)C4)C[C@@H]21` [Compound 43, (6aR,10aR)-1-hydroxy-N-(3-hydroxyadamantan-1-yl)-6,6-dimethyl-3-(2-methyloctan-2-yl)-6a,7,10,10a-tetrahydro-6H-benzo[c]chromene-9-carboxamide], the Ki in assay [1] is 0.891 µM; in assay [2], 0.0756 µM. The “Fold Selectivity (CB1/CB2)” value in assay [2] (Table 3, ratio of Ki CB1/CB2) is 11.8.
As to `CCCCCCC(C)(C)c1cc(O)c2c(c1)OC(C)(C)[C@@H]1CC=C(C(=O)NC#N)C[C@@H]21` [Compound 106, (6aR,10aR)-N-cyano-1-hydroxy-6,6-dimethyl-3-(2-methyloctan-2-yl)-6a,7,10,10a-tetrahydro-6H-benzo[c]chromene-9-carboxamide], the Ki in assay [1] stood at 0.803 µM; in assay [2] it was 0.81 µM. Besides, the “Fold Selectivity (CB1/CB2)” value in assay [2] (Table 3, ratio of Ki CB1/CB2) turned out to be 1.0.
For `CCCCCCC(C)(C)c1cc(O)c2c(c1)OC(C)(C)[C@@H]1CC=C(C(N)=O)C[C@@H]21` [Compound 4, (6aR,10aR)-1-Hydroxy-6,6-dimethyl-3-(2-methyloctan-2-yl)-6a,7,10,10a-tetrahydro-6H-benzo[c]chromene-9-carboxamide], the inhibition at 0.5 µM in assay [1] worked out at 70%. The inhibition at 0.05 µM in assay [2] amounted to 57%.
As to `CCCCCCC(C)(C)c1cc(O)c2c(c1)OC(C)(C)[C@@H]1CC=C(C(=O)NC34CC5CC(CC(C5)C3)C4)C[C@@H]21` [Compound 42, (6aR,10aR)-N-(adamantan-1-yl)-1-hydroxy-6,6-dimethyl-3-(2-methyloctan-2-yl)-6a,7,10,10a-tetrahydro-6H-benzo[c]chromene-9-carboxamide], the Ki in assay [1] came to 0.0595 µM; in assay [2], 0.175 µM. The “Fold Selectivity (CB1/CB2)” value in assay [2] (Table 3, ratio of Ki CB1/CB2) turned out to be 0.3.
With `CCCCCCC(C)(C)c1cc(OC(C)=O)c2c(c1)OC(C)(C)[C@@H]1CC=C(C#N)C[C@@H]21` [Compound 19, (6aR,10aR)-9-Cyano-6,6-dimethyl-3-(2-methyloctan-2-yl)-6a,7,10,10a-tetrahydro-6H-benzo[c]chromen-1-yl acetate], in assay [1], the affinity corresponds to a Ki of 0.0068 µM and the inhibition at 0.5 µM was 111%. Moreover, in assay [2], affinity was put at a Ki of 0.0019 µM and the inhibition at 0.05 µM turned out to be 115%. In addition, the “Fold Selectivity (CB1/CB2)” value in assay [2] (Table 2, ratio of Ki CB1/CB2) is reported as 4.
In the case of `CCCCCCC(C)(C)c1c(Cl)c(O)c2c(c1Cl)OC(C)(C)[C@@H]1CC=C(C(=O)O)C[C@@H]21` [Compound 113, (6aR,10aR)-2,4-dichloro-1-hydroxy-6,6-dimethyl-3-(2-methyloctan-2-yl)-6a,7,10,10a-tetrahydro-6H-benzo[c]chromene-9-carboxylic acid], the inhibition constant (Ki) in assay [1] and in assay [2] was greater than 3 µM in each case.
Regarding `CCCCCCCC(C)(C)c1cc(O)c2c(c1)OC(C)(C)[C@@H]1CC=C(C(=O)O)C[C@@H]21` [Compound 9, (6aR,10aR)-1-Hydroxy-6,6-dimethyl-3-(2-methylnonan-2-yl)-6a,7,10,10a-tetrahydro-6H-benzo[c]chromene-9-carboxylic acid], the inhibition at 0.5 µM in assay [1] is -8%. For the same compound, in assay [2], the inhibition at 0.05 µM is 18%.
As to `C[C@@H]1C[C@H]2[C@@H]3CCC4=CC(=O)C=C[C@]4(C)[C@@]3(F)[C@@H](O)C[C@]2(C)[C@@]1(O)C(=O)CO` [DEX, dexamethasone, reference compound], in assay [3], the IL17A is recorded as −1.5 fold change, the IL-1β is −3.8 fold change, the IL-4 is reported as −1.5 fold change and the IL-6 is on record as −3.9 fold change. In assay [3], this compound yielded an IL-8 of −1.0 fold change, an IL-10 of −2.0 fold change, an MCP-1 of −1.7 fold change and a TNFα of −6.0 fold change. Besides, in assay [3] (setting [4]), the “IL-12 (p70)” value was −4.5 fold change and the L-31 is −1.6 fold change.
For `CC(C)(CCCCCC(=O)O)c1cc(O)c2c(c1)OC(C)(C)[C@@H]1CC=C(C(=O)O)C[C@@H]21` [Compound 111, (6aR,10aR)-3-(7-carboxy-2-methylheptan-2-yl)-1-hydroxy-6,6-dimethyl-6a,7,10,10a-tetrahydro-6H-benzo[c]chromene-9-carboxylic acid], the Ki in assay [1] and in assay [2] was greater than 3 µM in each case.
For `CCCCCCC(C)(C)c1cc(O)c2c(c1)OC(C)(C)[C@@H]1CC=C(C(=O)N[C@H]3CC[C@H](O)CC3)C[C@@H]21` [Compound 17, (6aR,10aR)-1-Hydroxy-N-(trans-4-hydroxycyclohexyl)-6,6-dimethyl-3-(2-methyloctan-2-yl)-6a,7,10,10a-tetrahydro-6H-benzo[c]chromene-9-carboxamide], the inhibition at 0.5 µM in assay [1] was 23%. Also, in assay [2], the inhibition at 0.05 µM is 8%.
`CCCC(C)(C)c1cc(O)c2c(c1)OC(C)(C)[C@@H]1CC=C(C(=O)NC(C)(C)C(F)(F)F)C[C@@H]21` [Compound 101]: the Ki is greater than 5 µM in assay [1] and 0.084 µM in assay [2]. Moreover, in assay [2] (Table 3, ratio of Ki CB1/CB2), the “Fold Selectivity (CB1/CB2)” value is greater than 60.
